One may read the inhibition as the drop in the measured response relative to a control, in per cent.

SMILES strings stand for the structures. Structures can show the parent of a compound that is named as a salt. Where two headings read alike, the source gives them in different places.

This note sets out measurements from patent US5081131A, “Omega-((hetero)alkyl)benz(cd)-indol-2-amines” (American Cyanamid Company, priority 1988, dated 1992).

The target in experiment [1] is T1, thromboxane synthetase enzyme (Rattus norvegicus, UniProt P49430).
T1 construct: endogenous in cells; host or cells: washed platelets from arterial blood of male Okamoto-Aoki spontaneously hypertensive rats (animals from Taconic Farms, Germantown, N.Y.)
T1 sequence (P49430 1-533): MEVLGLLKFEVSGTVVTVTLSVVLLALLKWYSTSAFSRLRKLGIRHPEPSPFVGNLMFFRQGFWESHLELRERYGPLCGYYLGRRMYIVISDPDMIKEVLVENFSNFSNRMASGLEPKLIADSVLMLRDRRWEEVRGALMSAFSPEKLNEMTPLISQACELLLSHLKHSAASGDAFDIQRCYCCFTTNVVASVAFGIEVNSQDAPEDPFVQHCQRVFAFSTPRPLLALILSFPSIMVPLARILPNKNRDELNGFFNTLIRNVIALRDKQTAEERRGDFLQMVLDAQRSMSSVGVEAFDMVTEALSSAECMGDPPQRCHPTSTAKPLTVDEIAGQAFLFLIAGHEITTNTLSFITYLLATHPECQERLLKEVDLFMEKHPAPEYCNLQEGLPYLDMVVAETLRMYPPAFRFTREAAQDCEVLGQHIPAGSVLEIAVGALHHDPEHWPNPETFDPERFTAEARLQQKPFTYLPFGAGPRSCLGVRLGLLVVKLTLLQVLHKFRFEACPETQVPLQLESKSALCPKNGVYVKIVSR
Briefly: Thromboxane synthetase enzyme inhibition (TXB2 formation in washed platelets, RIA). It is filed as cell-based, spontaneously hypertensive rat. As to conditions: SHR platelets, 10 min at 37° C. As for the experimental part: The blood was diluted with 3 ml cold saline and centrifuged at room temperature for 15 min at 468×g. The platelet rich plasma (PRP) was separated. The platelets were isolated by certrifuging the PRP for 10 minutes at 1060×g and washed in 4 ml cold oxygenated Krebs phosphate buffer, pH 7.4. The chilled platelets recovered from centrifuging at 800×g for 10 minutes were resuspended in oxygenated Krebs phosphate buffer and diluted to contain 4.0-6.0×10^4 platelets/micro-liters. The inhibition of TX formation was studied by determining the concentration of thromboxane B2 (TXB2), the stable hydrolysis product of TXA2. Assay samples prepared on ice, contained 200 micro-liters platelet suspension, 50 micro-liters saline, and 50 micro-liters […] (saline) or drug under study. The test drug (0.003 mole) was dissolved in 5 ml of saline. […] The assay samples were incubated for 10 minutes at 37° C. in a metabolic shaker at about 60 rpm. The reaction was terminated by immersing the tubes in an ice bath and adding 50 micro-liters of 0.5M citric acid. The samples were centrifuged for 10 minutes at 2000 rpm at 4° C., and the supernatants were decanted.

Experiment [2] has as its system spontaneously hypertensive rats. Briefly: Hypotensive activity in spontaneously hypertensive rats (MABP). The experiment is classed as in vivo, rat (Okamoto strain). As to conditions: SHR, gavage, two doses of 10 mg/kg or less 24 h apart, MABP at 28 h; average baseline 160±1.5 mm Hg. On the procedure:
The novel compounds of the present invention are active hypotensive agents and were tested for hypotensive activity by the method of P. S. Chan and D. Poorvin, Clinical and Experimental Hypertension, 1 (6), 817-830 (1979). Male, 16 week old, spontaneously hypertensive rats of the Okamoto strain, from Taconic Farms, Germantown, N.Y., having an average mean arterial blood pressure of 160±1.5 mm of mercury, were used in the test. One to 4 rats were used per test compound. A rat was dosed by gavage with a test compound, suspended in 2% pre-boiled starch at a concentration of 50 mg/ml, at a doses of 10 mg/kg of body weight or less, with 0.9% sodium chloride loading at a dose of 25 ml/kg of body weight. A second identical dose of the test compound, without sodium chloride loading was given 24 hours later. At 28 hours after initial dose the mean arterial blood pressure (MABP) was measured. The procedure was repeated in a second and third rat when necessary.

Setting [3] is: 1×10^-4 Molar, read-out: % Inhibition (Thromboxane Synthetase Enzyme Inhibition).

Regarding `Clc1cc(Cl)c2cccc3c2c1N=C3NCCCn1ccnc1` [6,8-Dichloro-N-(3-(1H-imidazol-1-yl)propyl)benz(cd)indol-2-amine], in experiment [1] (setting [3]), the inhibition at 100 µM was determined as 97%. In addition, in experiment [2], the “Avg. MABP in mm Hg (No. of Rats)” value is 102 mm Hg.

In the case of `Clc1cc(Cl)c2cccc3c2c1N=C3NCCCCn1ccnc1` [6,8-Dichloro-N-(4-(1H-imidazol-1-yl)butyl)benz(cd)indol-2-amine], the inhibition at 100 µM in experiment [1] (setting [3]) worked out at 99%. Moreover, the “Avg. MABP in mm Hg (No. of Rats)” value in experiment [2] is 115 mm Hg.

With `Clc1cc(Cl)c2cccc3c2c1N=C3NCCCCc1cccnc1` [6,8-Dichloro-N-(4-(3-pyridinyl)butyl)benz(cd)indol-2-amine], the inhibition at 100 µM in experiment [1] (setting [3]) is 93%. The “Avg. MABP in mm Hg (No. of Rats)” value in experiment [2] came to 102 mm Hg.

As to `Clc1cc(Cl)c2cccc3c2c1N=C3NCCCCCCCCCCn1ccnc1` [6,8-Dichloro-N-(10-(1H-imidazol-1-yl)decyl)benz(cd)indol-2-amine], in experiment [1] (setting [3]), the inhibition at 100 µM is 96%. In addition, the “Avg. MABP in mm Hg (No. of Rats)” value in experiment [2] is 121 mm Hg.

As to `Brc1ccc2c3c(cccc13)C(NCCCn1ccnc1)=N2` [6-Bromo-N-(3-(1H-imidazol-l-yl)propyl)benz(cd)indol-2-amine, dihydrochloride], in experiment [1] (setting [3]), the inhibition at 100 µM amounted to 85%. Besides, in experiment [2], the “Avg. MABP in mm Hg (No. of Rats)” value is on record as 117 mm Hg.

For the compound `Brc1ccc2c3c(cccc13)C(NCCCCn1ccnc1)=N2` [6-Bromo-N-(4-(1H-imidazol-1-yl)butyl)benz(cd)indol-2-amine], the inhibition at 100 µM in experiment [1] (setting [3]) came out at 98%. Also, in experiment [2], the “Avg. MABP in mm Hg (No. of Rats)” value came out at 120 mm Hg.

`Brc1ccc2c3c(cccc13)C(NCCCCc1cccnc1)=N2` [6-Bromo-N-(4-(3-pyridinyl)butyl)benz(cd)indol-2-amine sesqui-fumarate]: the inhibition at 100 µM in experiment [1] (setting [3]) was 92%. Also, the “Avg. MABP in mm Hg (No. of Rats)” value in experiment [2] is listed as 110 mm Hg.

For the compound `Brc1ccc2c3c(cccc13)C(NCCCCc1cccnc1)=N2.Cl.Cl` [6-Bromo-N-(4-(3-pyridinyl)butyl)benz(cd)indol-2-amine, dihydrochloride], the “% Inhibition (Thromboxane Synthetase Enzyme Inhibition)” value (“% Inhibition” for short) in experiment [1] (1×10^-4 Molar) is listed as 89%. Moreover, the “Avg. MABP in mm Hg (No. of Rats)” value in experiment [2] was determined as 99 mm Hg.

Regarding `Brc1ccc2c3c(cccc13)C(NCCCCCCCCCCn1ccnc1)=N2` [6-Bromo-N-(10-(1H-imidazol-1-yl)decyl)benz(cd)indol-2-amine], the inhibition at 100 µM in experiment [1] (setting [3]) was 94%.

Regarding `Brc1ccc2c3c(cccc13)C(NCCCCCCCCCCCCn1ccnc1)=N2` [6-Bromo-N-(12-(1H-imidazol-1-yl)dodecyl)benz(cd)indol-2-amine], the inhibition at 100 µM in experiment [1] (setting [3]) came out at 90%. For the same compound, in experiment [2], the “Avg. MABP in mm Hg (No. of Rats)” value was 128 mm Hg.

Turning to `Clc1ccc2c3c(cccc13)C(NCCCCCn1ccnc1)=N2` [6-Chloro-N-(5-(1H-imidazol-1-yl)pentyl)benz(cd)indol-2-amine], in experiment [1] (setting [3]), the inhibition at 100 µM amounted to 100%.

Consider `C(=C/Cn1ccnc1)/CNC1=Nc2cccc3cccc1c23.Cl.Cl` [(Z)-N-(4-(1H-imidazol-1-yl)-2-butenyl)benz(cd)indol-2-amine, dihydrochloride], for which, in experiment [1] (setting [3]), the inhibition at 100 µM came out at 97%. Also, the “Avg. MABP in mm Hg (No. of Rats)” value in experiment [2] came out at 77 mm Hg.

`Clc1ccc(C(Cn2ccnc2)NC2=Nc3cccc4cccc2c34)cc1` (stereo not shown) [N-(1-(4-chlorophenyl)-2-(1H-imidazol-1-yl)ethyl)benz(cd)indol-2-amine, fumarate]: in experiment [1] (setting [3]), the inhibition at 100 µM stood at 35%.

With `Cn1cccc1CCNC1=Nc2cccc3cccc1c23` [N-(2-(1-Methyl-1H-pyrrol-2-yl)ethyl)benz(cd)indol-2-amine, fumarate], the inhibition at 100 µM in experiment [1] (setting [3]) turned out to be 90%.

As for `c1cc2c3c(cccc3c1)C(NCCn1ccnc1)=N2` [N-(2-(1H-imidazol-1-yl)ethyl)benz(cd)indol-2-amine], the inhibition at 100 µM in experiment [1] (setting [3]) was determined as 71%.

As to `c1cc2c3c(cccc3c1)C(NCCOCCn1ccnc1)=N2` [N-(2-(2-(1H-imidazol-1-yl)ethoxy)ethyl)benz(cd)indol-2-amine bis-fumarate], the inhibition at 100 µM in experiment [1] (setting [3]) came out at 98%.

As for `N#CCCN(Cc1ccccn1)C1=Nc2cccc3cccc1c23` [N-(2-Cyanoethyl)-N-(2-pyridinylmethyl)benz(cd)indol-2-amine, dihydrochloride], the inhibition at 100 µM in experiment [1] (setting [3]) came out at 97%.

With `c1ccc(CNC2=Nc3cccc4cccc2c34)nc1` [N-(2-Pyridinylmethyl)benz(cd)indol-2-amine, fumarate], the inhibition at 100 µM in experiment [1] (setting [3]) worked out at 95%.

For `OC(CNC1=Nc2cccc3cccc1c23)Cn1ccnc1` (stereo not shown) [N-(3-(1H-imidazol-1-yl)-2-hydroxypropyl)benz(cd)indol-2-amine], the inhibition at 100 µM in experiment [1] (setting [3]) worked out at 88%.

Take `c1cc2c3c(cccc3c1)C(NCCCn1ccnc1)=N2` [N-(3-(1H-imidazol-1-yl)propyl)benz(cd)indol-2-amine, fumarate]: the inhibition at 100 µM in experiment [1] (setting [3]) came to 92%.

For the compound `Cc1nccn1CCCNC1=Nc2cccc3cccc1c23` [N-(3-(2-Methyl-1H-imidazol-1-yl)propyl)benz(cd)indol-2-amine, monohydriodide], the inhibition at 100 µM in experiment [1] (setting [3]) turned out to be 82%.

For the compound `c1ccc(-c2nccn2CCCNC2=Nc3cccc4cccc2c34)cc1` [N-(3-(2-Phenyl-1H-imidazol-1-yl)propyl)benz(cd)indol-2-amine, hydriodide], the inhibition at 100 µM in experiment [1] (setting [3]) was determined as 100%.

Consider `CC(CCNC1=Nc2cccc3cccc1c23)c1ccncc1` (stereo not shown) [N-(3-(4-pyridinyl)butyl)benz(cd)indol-2-amine], for which, in experiment [1] (setting [3]), the inhibition at 100 µM was determined as 95%.

For `c1cncc(CNC2=Nc3cccc4cccc2c34)c1` [N-(3-Pyridinylmethyl)benz(cd)indol-2-amine, fumarate], in experiment [1] (setting [3]), the inhibition at 100 µM worked out at 68%.

For `c1cc2c3c(cccc3c1)C(NCCCCn1ccnc1)=N2` [N-(4-(1H-imidazol-1-yl)butyl)benz(cd)indol-2-amine monobutanedioic acid salt], in experiment [1] (read-out: % Inhibition (Thromboxane Synthetase Enzyme Inhibition), 1×10^-4 Molar), the inhibition at 100 µM came out at 93%.

As for `c1cc2c3c(cccc3c1)C(NCCCCn1ccnc1)=N2` [N-(4-(1H-imidazol-1-yl)butyl)benz(cd)indol-2-amine sesquibut] [N-(4-(1H-imidazol-1-yl)butyl)benz(cd)indol-2-amine sesquibutanedioic acid salt], the “% Inhibition” value in experiment [1] (1×10^-4 Molar) is on record as 98%.

`c1cc2c3c(cccc3c1)C(NCCCCn1ccnc1)=N2` [N-(4-(1H-imidazol-1-yl)butyl)benz(cd)indol-2-amine, hydriodi] [N-(4-(1H-imidazol-1-yl)butyl)benz(cd)indol-2-amine, hydriodide]: the “% Inhibition” value in experiment [1] (1×10^-4 Molar) was 100%.

For `CC(CCCNC1=Nc2cccc3cccc1c23)n1ccnc1.O=C(O)/C=C/C(=O)O.O=C(O)/C=C/C(=O)O` (stereo not shown) [N-(4-(1H-imidazol-1-yl)pentyl)benz(cd)indol-2-amine, bis-fumarate], the “% Inhibition” value in experiment [1] (1×10^-4 Molar) is listed as 99%.

For the compound `c1ccc(-n2ncc(CNC3=Nc4cccc5cccc3c45)n2)cc1` [N-((2-Phenyl-2H-1,2,3-triazol-2-yl)methyl)benz(cd)indol-2-amine fumarate], the inhibition at 100 µM in experiment [1] (setting [3]) worked out at 73%.

Consider `O=C(c1ccc(Cl)cc1)N(CCCCn1ccnc1)C1=Nc2cccc3cccc1c23` [N-Benz(cd)indol-2-yl-4-chloro-N-(4-(1-imidazol-1-yl)butylbenzamide], for which the inhibition at 100 µM in experiment [1] (setting [3]) was 96%.

Consider `O=C(c1ccccc1)N(CCCn1cncn1)C1=Nc2cccc3cccc1c23` [N-Benz(cd)indol-2-yl-N-(3-(1H-1,2,4-triazol-1-yl)propyl)benzamide], for which the inhibition at 100 µM in experiment [1] (setting [3]) was 77%.

Turning to `CCC(=O)N(CCC(C)n1ccnc1)C1=Nc2cccc3cccc1c23` (stereo not shown) [N-Benz(cd)indol-2-yl-N-(3-(1H-imidazol-1-yl)butyl)propionamide], in experiment [1] (setting [3]), the inhibition at 100 µM was found to be 95%.

For `CN(CCc1ccccn1)C1=Nc2cccc3cccc1c23` [N-Methyl-N-(2-(2-pyridinyl)ethyl)benz(cd)indol-2-amine fumarate], in experiment [1] (setting [3]), the inhibition at 100 µM is 89%.
